In patent publication US9926369B2, “Methods for treating hepatocellular cancer by administering an anti-Ang-2 antibody” (Regeneron Pharmaceuticals, Inc., priority 2009, dated 2018):

Legend:
[1] = tested on: COLO 205 (Human Colorectal Adenocarcinoma Cell Line) tumors; assay: COLO 205 mouse tumor model; assay type: in vivo, mice
Method: Briefly, 2×10^6COLO 205 cells in 100 μl of serum-free medium were injected subcutaneously into the flank of 6-8 week old male NCr nude mice (Taconic, Hudson, N.Y.). After tumor volumes reached an average of about 150 mm^3, mice were randomized into groups for treatment with antibody or Fc protein. Mice in each treatment group were administered an anti-Ang-2 antibody or Fc protein at a concentration of 4 mg/kg via intraperitoneal injection twice per week for approximately two weeks. Tumor volumes were measured twice per week over the course of the experiment and tumor weights were measured upon excision of tumors at the conclusion of the experiment. Averages (mean+/−standard deviation) of tumor weight and growth were calculated for each treatment group. “Avg. Tumor Growth” represents the average growth from the time of treatment initiation (when tumors were approximately 150 mm^3). Percent decrease of tumor weight and growth are calculated from comparison to Fc protein measurements.
A similar experiment was carried out to assess the effect of H1H685P, in particular, on COLO 205 tumor growth. Briefly, 2×10^6 COLO 205 cells in 100 μl of serum-free medium were implanted subcutaneously into the right hind flank of 9-11 week-old male SCID CB17 mice. When the tumors reached ˜125 mm^3, mice were randomized into 5 groups (n=7-8 mice/group) and treated twice per week with Fc protein (15 mg/kg), H1H685P (5 or 25 mg/kg) or Control II (5 or 25 mg/kg) for a period of 19 days. Tumor volumes were measured twice per week over the course of the experiment and tumor weights were measured upon excision of tumors at the end of the experiment. Averages of tumor weight and growth from the beginning of treatment were calculated for each group. Percent decrease of tumor weight and growth are calculated from comparison to the Fc control group.
To determine the effect of combining an anti-Ang-2 antibody with a VEGF inhibitor on the growth of COLO 205 xenografts, 2×10^6 cells were implanted subcutaneously into the right hind flank of 6-8 week-old female SCID mice. When the tumors reached an average volume of ˜350 mm^3, mice were randomized into 4 groups (n=6 mice/group) and treated with: human Fc protein (7.5 mg/kg), H1H685P (5 mg/kg), VEGF Trap (see U.S. Pat. No. 7,087,411) (2.5 mg/kg) or the combination of H1H685P+VEGF Trap. Mice were given a total of 3 doses over 10 days of treatment. Tumor volumes were measured twice per week over the course of the experiment. Averages of tumor growth from the start of treatment (mean+/−standard deviation) were calculated for each treatment group. Percent decrease of tumor growth was calculated from comparison to the Fc control group.
To test the effect of H1H685P in combination with a chemotherapeutic agent on tumor growth, 2.5×10^6 COLO 205 tumor cells were implanted subcutaneously into the right hind flank of 8-9 week-old male SCID mice. When the tumors reached an average volume of ˜150 mm^3 (day 17 after implantation), mice were randomized into 4 groups (n=5 mice/group) and treated as follows: the first group was treated sc with 15 mg/kg hFc and intraperitoneally (ip) with 5-FU vehicle; the second group was treated sc with 15 mg/kg of H1H685P; the third group was treated ip with 75 mg/kg of 5-FU; the fourth group was treated with the combination of 15 mg/kg H1H685P sc plus 75 mg/kg 5-FU ip. Mice received a total of three treatments, administered every 3-4 days. Tumor volumes were measured twice per week over the course of the experiment. Average (mean+/−standard deviation) tumor growth from the beginning of treatment until day 38 was calculated for each group. Percent decrease of tumor growth was calculated from comparison to the control group.

[2] = tested on: COLO 205 tumor vessel perfusion; assay: Tumor perfusion by contrast-enhanced micro-ultrasound, COLO 205 tumors; assay type: in vivo, mice; details: treated for 24 hrs
Method: To determine whether the combination of H1H685P+VEGF Trap has a greater effect on tumor vessel function than the single agents, a micro-ultrasound (VisualSonics' Vevo 770 imaging system) was used to assess changes in tumor perfusion. COLO 205 tumors were grown to ˜125 mm^3 and mice were then treated for 24 hrs with H1H685P, VEGF Trap or the combination of both agents. Following treatment, tumor vessel perfusion was determined based on contrast-enhanced micro-ultrasound 2D image acquisition and analysis of a “wash-in” curve, which represents the amount of contrast agent entering the tumor. Average (mean+/−standard deviation) tumor perfusion was calculated for each group. Percent decrease was calculated from comparison to the Fc control group.

MMT tumors = assay: MMT tumor growth in SCID mice; assay type: in vivo; details: H1H685P 12.5 mg/kg, VEGF Trap 5 mg/kg
Method: To provide additional evidence of combination efficacy, the effect of the H1H685P+VEGF Trap combination on the growth of MMT tumors was assessed. 0.5×10^6 MMT cells were implanted subcutaneously into the right hind flank of 6-8 week-old female SCID mice. […] The Fc and H1H685P groups were given 3 doses over 9 days. The VEGF Trap and combination groups were given 4 doses over 12 days. Tumor volumes were measured twice per week over the course of the experiment and tumor weights were measured upon excision of tumors at the end of the experiment (due to their large size, tumors from the Fc and H1H685P groups were collected 3 days before tumors from the VEGF Trap and combination groups). Averages (mean+/−standard deviation) of tumor growth from the beginning of treatment and of tumor weight were calculated for each group. Percent decrease of tumor weight and growth are calculated from comparison to the Fc control group.

[3] = COLO 205, male SCID mice, H1H685P 15 mg/kg sc, 5-FU 75 mg/kg ip, three treatments, until day 38
[4] = COLO 205, female SCID mice, H1H685P 5 mg/kg, VEGF Trap 2.5 mg/kg, 3 doses over 10 days

O=c1[nH]cc(F)c(=O)[nH]1 [Antibody 5-FU, 5-FU, reference compound]
% Decrease in Tumor Growth [1, 3]: 45% | Avg Tumor Growth [1, 3]: 313 ± 60 mm^3

VEGF Trap: VEGF-inhibiting fusion protein: VEGF receptor extracellular domains fused to the Fc portion of human IgG1 [reference compound]
Relative Tumor Perfusion ([2]; mean ± SD): 6.99 ± 1.36 | % Decrease in Tumor Perfusion ([2]; vs Fc control): 14% | % Decrease in Tumor Growth [1, 4]: 117% | Avg Tumor Growth [1, 4]: −62 ± 44 mm^3 | Tumor regression (in words) ([1]; COLO 205, female SCID mice, end vs beginning of treatment): tumor regression was observed | % Decrease in Tumor Growth (MMT tumors): 60% | % Decrease in Tumor Weight (MMT tumors): 44% | Avg Tumor Growth (MMT tumors): 536 ± 179 mm^3 | Avg Tumor Weight (MMT tumors): 0.889 ± 0.141 g
